Three molecules from patent US12478610B2, “Compositions of tryptophol derivatives and 4-ethyl-phenol derivatives, and methods of using same” (B. G. Negev Technologies and Applications Ltd., at …, priority 2020, dated 2025) can be followed below.

Test [1] has as its system human normal whole blood. The test is described as follows: Thromboelastography (TEG) of human normal whole blood clotting. Particulars: 200 μM (mixture: 200 μM each); healthy blood; TBS control. Type of test: cell-based.
Test [2] has as its system human normal whole blood. Described as above. Type of test: cell-based. As for the experimental part:
Clotting of whole blood (from healthy volunteers, and diabetics patients) was monitored by thromboelastography (TEG) on a TEGs 5000 Hemostasis Analyzer (Haemoscope Inc., Niles, IL) equipped with two independent channels. Thermoelastograms were recorded at 37° C. and analyzed using the TEGs Analytical Software) version 4.2.3 provided with the instrument). Reported clotting parameters are the time until the onset in the measured strength considered as clot reaction time, R; the time until achieving 20% of the maximum clot strength (clotting time), k; the rate of clot strength increase measuring the kinetics of clot formation, the α angle; and finally, the maximum clot strength, MA.
Aqueous solutions of molecules mixture in a ratio of 1:1 in deionized water were prepared in the concentration range of 400-1,800 μM. TEG cups were first filled with […] of 250 mM CaCl2, supplemented with […] of human blood sample, followed by the addition of the appropriate volume of the molecule's mixture dissolved in water to obtain the above rang of concentration or TBS as control before initiating the test. The test completed when clotting parameters obtained final values or within 45 min. Each sample was run in duplicates, n≥5 individual blood samples. TEG values of control fell within the acceptable range reported for human whole blood barring an expected decrease in clot strength (MA), as tested blood was deficient in platelets (Scarpelini et al. Biol. Res., 2009).
The inventors have studied the effect of tryptophol acetate and tyrosol acetate on human normal whole blood coagulation. The blood clotting was monitored by thromboelastography (TEG). TEG is one of the most common whole-blood viscoelastic coagulation tests used in clinical laboratories and at the point of care. TEG provides a direct information of the blood clotting kinetic and strength, with no ‘added reagents. Clotting of human normal whole blood was monitored by TEG on a TEG 5000 Hemostasis Analyzer (Haemoscope Inc., Niles, IL) equipped with two independent channels. Thermoelastograms were recorded at 37° C. and analyzed using the TEG Analytical Software (version 4.2.3 provided using the instrument). Reported clotting parameters are the time till onset in the measured strength considered as the clot reaction time, R; the time till achieving 20% of the maximum clot strength (clotting time), k; the rate of the clot strength increase measuring the kinetics of clot formation, the α angle; and lastly, the maximum clot strength, MA (see table 1). […]

The mark [3] stands for this setting: 400 μM (mixture: 400 μM each), healthy blood, TBS control.

Regarding `NCCc1c[nH]c2ccc(O)cc12` [Serotonin, serotonin], in the test with human normal whole blood [1], the “K” value stood at 2.4 ± 0.2 min, the “MA (mm)” value was found to be 60 ± 0.4 mm, the “R” value is given as 6.8 ± 0.9 min and the “α (degree)” value stood at 58.2 ± 0.3 degree. For the same molecule, in the test with human normal whole blood [2] (setting [3]), the “K” value turned out to be 1.5 ± 0.2 min, the “MA (mm)” value is 61.3 ± 1.7 mm, the “R (min)” value is recorded as 5.2 + 0.4 min and the “α (degree)” value came to 62.4 ± 0.9 degree. For the same molecule, in the test with human normal whole blood [2] (single substance at a similar concentration, whole blood), the “effect on the TEG parameters as seen with the mixture at 200 μM each” value was “did not show a similar effect”.

For `CC(=O)OCCc1ccc(O)cc1` [compound 180, Tyrosol acetate], in the test on human normal whole blood [1], the “K” value is on record as 1.8 min, the “MA (mm)” value is given as 59.0 mm, the “R” value is 6.4 min and the “α (degree)” value came out at 59.6 degree.

As for `CC(=O)OCCc1c[nH]c2ccccc12` [compound 203, Tryptophol acetate], in the test on human normal whole blood [1], the “K” value stood at 2.3 ± 0.1 min, the “MA (mm)” value amounted to 60.5 ± 1.5 mm, the “R” value stood at 6.2 ± 0.2 min and the “α (degree)” value is on record as 56.8 ± 2.7 degree.
